Data published in patent publication US9464055B2, “Quinoline derivatives useful as CB-1 inverse agonists” (JANSSEN PHARMACEUTICA NV, priority 2014, dated 2016).

Columns and labels:
[1] = molecular target: hCB1-CHO-K1 membranes (Homo sapiens, UniProt P21554); experiment: CB-1 membrane binding assay ([3H] CP 55,940 displacement)
[2] = molecular target: T1, Human CB2R (Cannabinoid receptor 2) (Homo sapiens, UniProt P34972); experiment: CB-2 in vitro cAMP (HTRF) functional assay; format: cell-based; conditions: mean where tested more than once
T1 construct: host or cells: HEK-293
Description: (§1) CB1 and CB2 receptors are Gi-coupled GPCR. Activation of CB1 and CB2 receptors results in a decrease in cAMP production. An inverse agonist of the CB1 or CB2 receptor results in the opposite effect, an increase of cAMP production. The principle of this assay is based on HTRF® technology (Homogeneous Time-Resolved Fluorescence). The method is a competitive immunoassay between native cAMP produced by cells and the cAMP labeled with the fluorophore d2. The tracer binding is quantified by a Mab anti-cAMP labeled with Eu3+ TBP-NHS Cryptate (supplied as part of the assay kit). The specific signal (i.e. energy transfer) is inversely proportional to the concentration of cAMP in the standard or sample.
(§2) Human CB1R (Cannabinoid receptor 1) was stably transfected in HEK-293 cells (DiscoveRx, cat: 93-0200C1). Human CB2R (Cannabinoid receptor 2) was stably transfected in HEK-293 cells (DiscoveRx, cat: 93-0201C1). Cell cultures were maintained in media: DMEM (Invitrogen Cat#12430-054) supplemented with 10% HI FBS (Invitrogen Cat#16140-071), 1% L-glutamine (Invitrogen Cat#25030-081), 0.2 mg/ml Hygromycin B (Invitrogen Cat#10687-010), 600 μg/mL G418 (Invitrogen Cat#10131-035), and 1× Penn/Strep (Invitrogen 15140-122). After cell expansion, aliquots were cryo-stored in media containing 5% DMSO (Pierce Cat#20684).
(§3) One day prior to experiments media was warmed to 37° C. and the cryo-stored cells were thawed in a 37° C. water bath. The cells were then added to media (10× volume) and the mixture was centrifuged at 1000 RPM for 5 min. The supernate was removed and the cells were re-suspended in media. A sample of the cell suspension was evaluated on a Cedex XS automated cell counter (Innovatis Systems) to determine viable cells/ml. Additional media was added to the cells to achieve a final cell density of 4E5 cells/mL. The cells were then plated into 384 well PDL white solid bottom plates (Greiner, Cat#781945) at 20 μL per well using a Multidrop (Thermo Scientific). Cells were removed from Row P (location of cAMP standards). Two columns of cells were plated into a clear bottom 384 well PDL coated plate (Greiner, Cat#781944) to view confluence the day of the assay. The cell plates were lidded and stored for 15 minutes in a hood, then transferred to an incubator (37° C., 5% CO2, 95% humidity) overnight.
(§4) DMSO was added to all wells of 384 well V bottom polystyrene plate (Greiner, Cat#781280) except to columns 1 and 13, rows O and P and wells M13-M23 and N13-N23. Test compounds (60 μL, 10 mM) were added to Column 1 and 13 (A1 through N1 and A13 through L13). Test compounds were serially diluted 1/3 by transferring and mixing 20 μl sample with 40 μL DMSO.
(§5) DMSO (40 μL) was added to wells of 384 well V bottom polystyrene plate: O2 through O11, M14 through M23, N14 through N23, and O14 through O23. AM630 (also known as [6-iodo-2-methyl-1-[2-(4-morpholinyl)ethyl]-1H-indol-3-yl](4-methoxyphenyl)-methanone, Cayman Chemical, Cat#10006974) (60 μL, 10 mM) was added to O1; and 1-(2,4-dichlorophenyl)-7-[(4-fluorophenyl)methylene]-4,5,6,7-tetrahydro-N-1-piperidinyl-1H-indazole-3-carboxamide (60 μL, 10 mM) was added to N13. The control was serially diluted 1/3 by transferring and mixing 20 μl sample with 40 μL DMSO. This process resulted 11 doses per control, 10 mM to […].
(§6) Cells plated the day prior to the assay in clear bottom plates were viewed on an inverse microscope to ensure confluency in the range of 60-75%. […]

[3] = molecular target: T2, Human CB1R (Cannabinoid receptor 1) (Homo sapiens, UniProt P21554); experiment: CB-1 in vitro cAMP (HTRF) functional assay; format: cell-based; conditions: mean where tested more than once
T2 construct: host or cells: HEK-293
Description: as §1, §2, §3, §4, §5, §6

[4] = molecular target: T3, hCB2-HEK293 membranes (Homo sapiens, UniProt P34972); experiment: CB-2 membrane binding assay ([3H] CP 55,940 displacement); conditions: mean where tested more than once
T3 construct: expressed in transfected cells; host or cells: HEK293
T3 sequence (P34972 whole entry): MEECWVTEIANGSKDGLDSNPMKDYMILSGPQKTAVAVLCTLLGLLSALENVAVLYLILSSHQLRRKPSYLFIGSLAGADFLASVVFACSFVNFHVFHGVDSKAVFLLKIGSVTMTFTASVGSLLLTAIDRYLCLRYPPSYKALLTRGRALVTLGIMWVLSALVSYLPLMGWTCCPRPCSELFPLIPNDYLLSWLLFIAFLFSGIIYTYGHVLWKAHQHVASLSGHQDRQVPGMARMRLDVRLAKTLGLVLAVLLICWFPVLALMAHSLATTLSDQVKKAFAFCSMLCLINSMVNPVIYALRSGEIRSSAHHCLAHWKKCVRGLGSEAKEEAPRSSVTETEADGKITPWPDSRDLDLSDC

Chain of hCB1-CHO-K1 membranes (P21554 whole entry): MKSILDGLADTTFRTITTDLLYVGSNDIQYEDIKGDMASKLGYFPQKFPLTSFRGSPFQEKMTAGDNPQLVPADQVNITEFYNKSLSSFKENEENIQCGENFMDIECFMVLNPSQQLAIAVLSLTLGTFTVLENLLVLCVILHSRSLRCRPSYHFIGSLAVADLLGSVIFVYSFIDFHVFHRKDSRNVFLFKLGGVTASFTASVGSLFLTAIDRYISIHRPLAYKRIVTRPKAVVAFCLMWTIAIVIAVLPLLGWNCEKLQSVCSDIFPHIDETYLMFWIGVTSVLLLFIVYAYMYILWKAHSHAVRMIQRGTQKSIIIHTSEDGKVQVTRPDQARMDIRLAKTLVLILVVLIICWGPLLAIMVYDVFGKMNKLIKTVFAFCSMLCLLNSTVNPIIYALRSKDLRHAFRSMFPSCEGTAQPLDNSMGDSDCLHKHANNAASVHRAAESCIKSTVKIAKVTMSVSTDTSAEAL
T2 sequence (P21554 whole entry): as above
T1 sequence (P34972 whole entry): as the sequence (P34972 whole entry) above

Row | IC50 [1] [nM] | EC50 [2] [nM] | Structure (SMILES) | further results
1 |  | > 10000 | O=C(O)CCN1CCC(Nc2cc(=O)[nH]c3ccc(C(c4ccc(Cl)cc4)c4ccc(Cl)cc4)cc23)CC1 [Compound 115, 3-[4-({6-[Bis(4-chlorophenyl)methyl]-2-oxo-1,2-dihydroquinolin-4-yl}amino)piperidin-1-yl]propanoic acid] | EC50 [3]: > 10000 nM
2 | 97.3 |  | Clc1ccc(C(c2ccc3nccc(/C=C/c4ccccc4)c3c2)c2cccs2)cc1 (stereo not shown) [Compound 508, 6-[(4-Chlorophenyl)(thiophen-2-yl)methyl]-4-[(E)-2-phenylethenyl]quinoline] | 
3 |  | 3400 | CCOC(=O)COc1cc(C(c2ccc(Cl)cc2)c2ccc(Cl)cc2)cc2c(NC3CCN(S(=O)(=O)C(F)(F)F)CC3)ccnc12 [Compound 544] | EC50 [3]: 126 nM
4 |  | > 10000 | O=c1cc(Nc2ccc(C(F)(F)F)cc2)c2cc(C(c3ccc(Cl)cc3)c3ccc(Cl)cc3)cc(Br)c2[nH]1 [Compound 93] | EC50 [3]: 15 nM
5 | > 2500 |  | O=c1cc(CCc2cccc(Cl)c2)c2cc(C(O)(c3ccc(Cl)cc3)c3nccs3)ccc2[nH]1 (stereo not shown) [Compound 8, 4-(3-chlorophenethyl)-6-((4-chlorophenyl)(hydroxy)(thiazol-2-yl)methyl)quinolin-2(1H)-one] | 
6 |  | > 10000 | NCCCCNc1cc(C(c2ccc(Cl)cc2)c2ccc(Cl)cc2)cc2c(NC3CCN(S(=O)(=O)C(F)(F)F)CC3)cc(=O)[nH]c12 [Compound 141, 8-((4-aminobutyl)amino)-6-(bis(4-chlorophenyl)methyl)-4-((1-((trifluoromethyl)sulfonyl)piperidin-4-yl)amino)quinolin-2(1H)-one] | 
7 |  | > 10000 | O=c1cc(NC2CCN(CC(F)(F)F)CC2)c2cc(C(c3ccc(Cl)cc3)c3ccc(Cl)cc3)ccc2[nH]1 [Compound #77, 6-(bis(4-chlorophenyl)methyl)-4-((1-(2,2,2-trifluoroethyl)piperidin-4-yl)amino)quinolin-2(1H)-one] | 
8 |  | > 10000 | O=C(O)CN1CCC(Nc2cc(=O)[nH]c3ccc(C(c4ccc(Cl)cc4)c4ccc(Cl)cc4)cc23)CC1 [Compound 117, [4-({6-[Bis(4-chlorophenyl)methyl]-2-oxo-1,2-dihydroquinolin-4-yl}amino)piperidin-1-yl]acetic acid] | 
9 | 55.1 |  | Clc1ccc(C(c2ccc3nccc(/C=C/c4ccccc4)c3c2)c2nccs2)cc1 (stereo not shown) [Compound 511] | IC50 [4]: > 5000 nM
10 | 223 |  | OC(c1ccc(Cl)cc1)(c1ccsc1)c1ccc2nccc(/C=C/c3ccccc3)c2c1 (stereo not shown) [Compound 507, (4-Chlorophenyl){4-[(E)-2-phenylethenyl]quinolin-6-yl}thiophen-3-ylmethanol] | 
11 |  | > 10000 | O=C(O)CCC(=O)N1CCC(Nc2cc(=O)[nH]c3ccc(C(c4ccc(Cl)cc4)c4ccc(Cl)cc4)cc23)CC1 [Compound 98, 4-(4-((6-(bis(4-chlorophenyl)methyl)-2-oxo-1,2-dihydroquinolin-4-yl)amino)piperidin-1-yl)-4-oxobutanoic acid] | 

The next lines start with the compound.

Row | Structure (SMILES) | IC50 [1] [nM] | EC50 [2] [nM] | further results
12 | OC(c1ccc(Cl)cc1)(c1ccc2nccc(/C=C/c3ccccc3)c2c1)c1cccs1 (stereo not shown) [Compound 506, (4-Chlorophenyl){4-[(E)-2-phenylethenyl]quinolin-6-yl}thiophen-2-ylmethanol] | 101 |  | 
13 | OC(c1ccc(Cl)cc1)(c1ccc(Cl)cc1)c1ccc2nccc(/C=C/c3ccccc3)c2c1 [Compound 501, (E)-bis(4-chlorophenyl)(4-styrylquinolin-6-yl)methanol] | 52.1 |  | 
14 | Clc1ccc(C(c2ccc(Cl)cc2)c2ccc3nccc(/C=C/c4ccccc4)c3c2)cc1 [Compound 503, (E)-6-(bis(4-chlorophenyl)methyl)-4-styrylquinoline] | 4.1 |  | 
15 | O=C(O)c1ccc(Nc2cc(=O)[nH]c3ccc(C(c4ccc(Cl)cc4)c4ccc(Cl)cc4)cc23)cc1 [Compound 86, 4-({6-[Bis(4-chlorophenyl)methyl]-2-oxo-1,2-dihydroquinolin-4-yl}amino)benzoic acid] |  | > 10000 | EC50 [3]: > 10000 nM
16 | O=C(c1ccc(Nc2cc(=O)[nH]c3ccc(C(c4ccc(Cl)cc4)c4ccc(Cl)cc4)cc23)cc1F)N1CCCC1 [Compound 138] |  | 750 | EC50 [3]: 227 nM
17 | COc1ccc(C(O)(c2ccc3nccc(/C=C/c4ccccc4)c3c2)c2nccs2)cc1 (stereo not shown) [Compound 504, (E)-(4-methoxyphenyl)(4-styrylquinolin-6-yl)(thiazol-2-yl)methanol] | 1870 |  | 
18 | O=c1cc(CCc2cccc(Cl)c2)c2cc(C(c3ccc(Cl)cc3)c3nccs3)ccc2[nH]1 (stereo not shown) [Compound 11, 4-(3-chlorophenethyl)-6-((4-chlorophenyl)(thiazol-2-yl)methyl)quinolin-2(1H)-one] | 332 |  | 
19 | O=C(O)COc1cc(C(c2ccc(Cl)cc2)c2ccc(Cl)cc2)cc2c(NC3CCN(S(=O)(=O)C(F)(F)F)CC3)ccnc12 [Compound 545] |  |  | EC50 [3]: 4900 nM
20 | O=c1cc(/C=C/c2cccc(F)c2)c2cc(C(c3ccc(Cl)cc3)c3ccsc3)ccc2[nH]1 (stereo not shown) [Compound 16, 6-[(4-Chlorophenyl)(thiophen-3-yl)methyl]-4-[(E)-2-(3-fluorophenyl)ethenyl]quinolin-2(1H)-one] | 22 |  | IC50 [4]: > 5000 nM
21 | O=c1cc(/C=C/c2ccccc2)c2cc(C(c3ccc(Cl)cc3)c3nccs3)ccc2[nH]1 (stereo not shown) [Compound 25, (E)-6-((4-chlorophenyl)(thiazol-2-yl)methyl)-4-styrylquinolin-2(1H)-one] | 34.6 |  | IC50 [4]: > 5000 nM
22 | O=c1cc(NC2CCN(S(=O)(=O)C(F)(F)F)CC2)c2cc(C(c3ccc(Cl)cc3)c3nccs3)ccc2[nH]1 (stereo not shown) [Compound #41, 6-((4-chlorophenyl)(thiazol-2-yl)methyl)-4-((1-((trifluoromethyl)sulfonyl)piperidin-4-yl)amino)quinolin-2(1H)-one] | 4.4 |  | IC50 [4]: > 5000 nM
23 | Cn1c(=O)cc(CCc2cccc(Cl)c2)c2cc(C(c3ccc(Cl)cc3)c3nccs3)ccc21 (stereo not shown) [Compound 9, 4-(3-chlorophenethyl)-6-((4-chlorophenyl)(thiazol-2-yl)methyl)-1-methylquinolin-2(1H)-one] | > 2500 |  | 
24 | NC(=O)CCCOc1ccc(Nc2cc(=O)[nH]c3ccc(C(c4ccc(Cl)cc4)c4ccc(Cl)cc4)cc23)cc1 [Compound 123, 4-[4-({6-[Bis(4-chlorophenyl)methyl]-2-oxo-1,2-dihydroquinolin-4-yl}amino)phenoxy]butanamide] |  | > 10000 | 
25 | O=C(O)Cc1ccc(Nc2cc(=O)[nH]c3ccc(C(c4ccc(Cl)cc4)c4ccc(Cl)cc4)cc23)cc1 [Compound 125, [4-({6-[Bis(4-chlorophenyl)methyl]-2-oxo-1,2-dihydroquinolin-4-yl}amino)phenyl]acetic acid] |  | > 10000 | 
26 | CCOC(=O)CCCNc1cc(C(c2ccc(Cl)cc2)c2ccc(Cl)cc2)cc2c(NC3CCN(S(=O)(=O)C(F)(F)F)CC3)cc(=O)[nH]c12 [Compound 104, Ethyl 4-({6-[bis(4-chlorophenyl)methyl]-2-oxo-4-({1-[(trifluoromethyl)sulfonyl]piperidin-4-yl}amino)-1,2-dihydroquinolin-8-yl}amino)butanoate] |  | > 10000 | 
27 | O=c1cc(/C=C/c2ccc(C(F)(F)F)cc2)c2cc(C(c3ccc(Cl)cc3)c3cccs3)ccc2[nH]1 (stereo not shown) [Compound 19, 6-[(4-Chlorophenyl)(thiophen-2-yl)methyl]-4-{(E)-2-[4-(trifluoromethyl)phenyl]ethenyl} quinolin-2(1H)-one] | 15.1 |  | IC50 [4]: > 5000 nM
